Source: patent US6906205B2, “Spiro and dispiro 1,2,4-trioxolane antimalarials” (Medicines for Malaria Venture MMV, priority 2002, dated 2005)
Values after ≈ are worked out from the molar mass of the structure shown.

Legend:
[1] = test system: P. falciparum NF54 strain (sensitive to standard antimalarials); assay: semiautomated microdilution assay, [3H]-hypoxanthine incorporation, NF54 strain; assay type: cell-based, Plasmodium falciparum; conditions: NF54 strain, 72 h incubation
Outline: (§1)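 IC50 values come from logit regression of semiautomated microdilution data obtained on intraerythrocytic parasites drawn from asynchronous cultures.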

[2] = test system: P. falciparum K1 strain (Thailand resistant to chloroquine); assay: semiautomated microdilution assay, [3H]-hypoxanthine incorporation, K1 strain; assay type: cell-based, Plasmodium falciparum; conditions: K1 strain, 72 h incubation
Outline: as §1

[3] = test system: ANKA strain of P. berghei; assay: single dose STI in vivo screen in infected mice; design: species or system Plasmodium berghei; conditions: for Activity (%) po / Survival (days) po: single 10 mg/kg po in 3% ethanol and 7% Tween 80; for Activity (%) po / Activity (%) sc / Activity (%) SSVpo: mice; for Activity (%) sc / Survival (days) sc: single 10 mg/kg sc in 3% ethanol and 7% Tween 80; for Survival (days) po / Survival (days) sc / Survival (days) SSVpo: untreated control 5.6 ± 0.3; for Activity (%) SSVpo: single po dose in standard suspending vehicle (SSV); for Survival (days) SSVpo: single po dose in SSV
Outline: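 Groups of 3-5 Moro SPF or NMRI mice infected with the ANKA strain of P. berghei received a single dose of trioxolane on day one post-infection. The compound was given in 3% ethanol and 7% Tween 80 or in SSV (0.5% w/v CMC, 0.5% v/v benzyl alcohol, 0.4% v/v Tween 80, 0.9% w/v sodium chloride in water). Antimalarial activity was scored as percent reduction in parasitemia on day three and as survival time versus untreated controls. Survival to day 30 counted as cure.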

[4] = percent reduction in parasitemia day 3 post-infection

| SMILES | IC50 (ng/ml) NF54 [1] | IC50 (ng/ml) K1 [2] | Activity (%) po [3, 4] | Activity (%) sc [3, 4] | Survival (days) po [3] | Survival (days) sc [3] | Activity (%) SSVpo [3, 4] [%] | Survival (days) SSVpo [3] [days] | Activity (%) 3 mg/kg SSV po ([3]; percent reduction in parasitemia day 3 post-infection, single 3 mg/kg po in SSV) [%] | Survival (days) 10 mg/kg SSV po ([3]; single 10 mg/kg po in SSV) [days] |
| --- | --- | --- | --- | --- | --- | --- | --- | --- | --- | --- |
| Fc1ccc(C2(c3ccc(F)cc3)OOC3(O2)C2CC4CC(C2)CC3C4)cc1 (stereo not shown) [OZ44] | 2.3 ng/mL (≈ 5.98 nM) | 2.5 ng/mL (≈ 6.5 nM) | 99.3% | 99.9% | 7.0 days | 8.3 days | – | – | – | – |
| CC(=O)NC[C@H]1CC[C@]2(CC1)OOC1(O2)C2CC3CC(C2)CC1C3 (stereo partly shown) [OZ262] | 0.84 ng/mL (≈ 2.5 nM) | 0.63 ng/mL (≈ 1.88 nM) | 96% | 99.39% | 11.7 days | 10.0 days | 98 | 12.3 | – | – |
| O=S(=O)(c1ccc(Cl)cc1)N1CCC2(CC1)OOC1(O2)C2CC3CC(C2)CC1C3 (stereo not shown) [OZ57] | 2.8 ng/mL (≈ 6.36 nM) | 3.1 ng/mL (≈ 7.05 nM) | 32% | 98.4% | 6.0 days | 7.7 days | – | – | – | – |
| O=C1CCC2(CC1)OOC1(CCCCC1)O2 [OZ02] | 94 ng/mL (≈ 415 nM) | > 100 ng/mL | 0/NA/0^1% | 0/NA/0^1% | 5.0/NA/5.0^1 days | 5.0/NA/5.0^1 days | – | – | – | – |
| c1csc(NC[C@H]2CC[C@]3(CC2)OOC2(O3)C3CC4CC(C3)CC2C4)n1 (stereo partly shown) [OZ252] | 2.2 ng/mL (≈ 5.84 nM) | 2.3 ng/mL (≈ 6.11 nM) | 98.91% | 99.82% | 8.3 days | 9.3 days | 99.49 | 9.0 | – | – |
| C1CCC2(CC1)OOC1(CCC3(CC1)OOC1(CCCCC1)O3)O2 (stereo not shown) [OZ09] | 39 ng/mL (≈ 115 nM) | 32 ng/mL (≈ 94 nM) | 0% | 81% | 5.0 days | 6.3 days | – | – | – | – |
| CCOC(=O)c1ccc(OC[C@H]2CC[C@]3(CC2)OOC2(O3)C3CC4CC(C3)CC2C4)cc1 (stereo partly shown) [OZ166] | > 10 ng/mL | 28 ng/mL (≈ 63.3 nM) | 11% | 4% | 6.7 days | 5.7 days | 0 | 6.3 | – | – |
| C1CC1CNC1CCC2(CC1)OOC1(O2)C2CC3CC(C2)CC1C3 (stereo not shown) [OZ184] | 1.4 ng/mL (≈ 4.2 nM) | 1.0 ng/mL (≈ 3 nM) | 54% | 97% | 6.7 days | 8.7 days | 59 | 7.0 | – | – |
| NC(=O)N[C@H]1CC[C@]2(CC1)OOC1(O2)C2CC3CC(C2)CC1C3 (stereo partly shown) [OZ221] | >10/>10 ng/ml | >10/>10 ng/ml | 80% | 97% | 6.3 days | 8.0 days | 87 | 7.0 | – | – |
| Cc1ccc(S(=O)(=O)N2CCC3(CC2)OOC2(O3)C3CC4CC(C3)CC2C4)cc1 (stereo not shown) [OZ51] | 2.5/2.5 ng/ml | 2.5/2.5 ng/ml | 89% | 100% | 7.0 days | 14 days | – | – | – | – |
| N#CC1(c2ccc(Cl)c(Cl)c2)CCC2(CC1)OOC1(O2)C2CC3CC(C2)CC1C3 (stereo not shown) [OZ75] | 4.3 ng/mL (≈ 9.9 nM) | 2.4 ng/mL (≈ 5.53 nM) | 77% | 5% | 7.3 days | 5.0 days | – | – | – | – |
| O=CN1CCN(C(=O)C[C@H]2CC[C@]3(CC2)OO[C@]2(O3)C3CC4CC(C3)CC2C4)CC1 [OZ294] | 0.63 ng/mL (≈ 1.51 nM) | 0.39 ng/mL (≈ 0.932 nM) | – | – | – | – | – | – | 70 | 8.6 |
| O=S(=O)(c1cccc2cccnc12)N1CCC2(CC1)OOC1(O2)C2CC3CC(C2)CC1C3 (stereo not shown) [OZ114] | 2.2 ng/mL (≈ 4.82 nM) | 3.7 ng/mL (≈ 8.1 nM) | 0% | 99.64% | 5.7 days | 8.7 days | 0 | 6.0 | – | – |
